Results on two compounds are retold here after PMC5447729 (Frontiers in Pharmacology, 2017).

The test system of one series is db/db mice. Briefly: Three-week oral treatment of diabetic db/db mice (FBG, ITT, serum parameters, organ indices). The series is classed as in vivo. As to the method:
All animal experiments were performed according to procedures approved by the Animal Experimentation Ethics Committee of the Beijing Institute of Pharmacology and Toxicology for animal care, handling and termination. Eight-week-old male homozygous C57BLKS/J db/db mice were obtained from the Model Animal Research Centre of Nanjing University (Nanjing, China) and fed a standard mouse diet. Male C57BL/6 mice (4 weeks old) were obtained from the Laboratory Animal Centre of the Beijing Institute of Pharmacology and Toxicology and fed a high-fat, high-sugar diet for 16 weeks to induce diet-induced obesity (DIO). […] Body weight (BW) and fasting blood glucose were recorded regularly during the treatment period. […] Blood glucose was monitored at 0, 30, 60, 90, and 120 min after the oral administration of 1 g kg^−1 dextrose. […]
(§1) Serum triglyceride (TG), cholesterol, free fatty acid (FFA), and glucose levels were measured by using commercial kits (Nanjing Jiancheng Bioengineering Institute, Nanjing, China) according to the manufacturer's instructions. Serum adiponectin, monocyte chemotactic protein 1(MCP1), Interleukin-6 (IL-6), Receptor activator of nuclear factor kappa-B ligand (RANKL), and Adrenocorticotropic Hormone (ACTH) were quantified using a multiplex Luminex assay (Millipore/Linco Research).

For another series, the system named is DIO mice. Kind of series: Three-week oral treatment of insulin-resistant DIO mice (OGTT, FBG, serum factors, organ indices, liver lipids, histology). As to conditions: for body weight and WAT: RSG 10 mg kg−1, INT131 30 mg kg−1; for serum adiponectin / serum pro-inflammatory cytokines MCP-1 and IL-6: multiplex detection; for morphology of hepatocyte and hepatic lipid content: vs vehicle-treated. It counts as in vivo. The protocol:
All animal experiments were performed according to procedures approved by the Animal Experimentation Ethics Committee of the Beijing Institute of Pharmacology and Toxicology for animal care, handling and termination. Eight-week-old male homozygous C57BLKS/J db/db mice were obtained from the Model Animal Research Centre of Nanjing University (Nanjing, China) and fed a standard mouse diet. Male C57BL/6 mice (4 weeks old) were obtained from the Laboratory Animal Centre of the Beijing Institute of Pharmacology and Toxicology and fed a high-fat, high-sugar diet for 16 weeks to induce diet-induced obesity (DIO). […] Compounds were dissolved in DMSO and suspended in 0.5% carboxymethylcellulose. Body weight (BW) and fasting blood glucose were recorded regularly during the treatment period. After 14 d of treatment, db/db mice were subjected to insulin tolerance tests (ITT) and fasted for 6 h prior to the intraperitoneal (i.p.) injection of 1 U kg^−1 insulin, and blood glucose was estimated at the indicated time points. […] Blood glucose was monitored at 0, 30, 60, 90, and 120 min after the oral administration of 1 g kg^−1 dextrose. […] Interscapular brown adipose tissue (iBAT), epididymal white adipose tissue (eWAT), subcutaneous inguinal white adipose tissue (sWAT), liver and skeletal muscle were excised, weighed and rapidly frozen in liquid nitrogen for subsequent gene expression and western blot analysis.
as §1
To determine TG and total cholesterol levels in the liver, 50 mg of frozen tissue was homogenized with a TissueLyserII (Qiagen, Germantown, MD, USA) in 1 ml of chloroform/methanol (2:1, v/v), after which 200 μL of 0.05 M KCl was added, and the solution was centrifuged at 5,000 rpm for 10 min. The aqueous phase was removed, and the organic phase was filtered and dried by nitrogen flushing. After evaporation of the chloroform under nitrogen, lipid samples were resuspended in isopropyl alcohol, and TG and total cholesterol content were determined with enzymatic assays.
sWAT, iBAT, and liver samples were fixed, embedded in paraffin and sectioned. Sections were cut at a thickness of […] and stained with haematoxylin/eosin (HE). Liver sections as well as adipose sections from at least 3 mice per group were also stained with HE. Adipocyte (n = 100 adipocytes) diameter was measured using Image J software, and the average diameter was recorded for each animal.

A further series relates to PPARγ target genes. Kind of series: Real-time PCR gene expression in tissues of treated DIO and db/db mice. The series is classed as in vivo. As to conditions: for expression of BAT marker genes (Ucp1, Cidea, Elove3, Cox7a, Cox8b) and adipogenesis and lipogenesis genes (aP2, adiponectin, Lpl, Cd36) in BAT: more pronounced in the INT131 group; for expression of adipogenesis and fatty acid metabolism genes in sWAT and eWAT / levels of macrophage markers Cd68 and F4/80, pro-inflammatory cytokines IL-6 and TNFα and chemokine Mcp1 / Ucp1, Elove3 and aP2 gene expression in skeletal muscle: DIO and db/db mice; for expression of adipogenesis and fatty acid metabolism genes in sWAT and eWAT / levels of macrophage markers Cd68 and F4/80, pro-inflammatory cytokines IL-6 and TNFα and chemokine Mcp1: sWAT and eWAT. As to the method: Total RNA was isolated from tissues with a High-Purity Total RNA Extraction Kit (BioTeke Corporation, Beijing, China) according to the manufacturer's instructions. RNA was reverse-transcribed into cDNA with a High Capacity cDNA Reverse Transcription Kit (Transgenes Corporation, Beijing, China). Real-time PCR was carried out on an ABI 7300 Real-time PCR System (Applied Biosystems, Foster City, CA, USA) using SYBR Green PCR Master Mix (Roche Molecular Biochemicals, Mannheim, Germany). Relative gene expression levels were normalized to the β-actin gene and quantified by using the 2^−ΔΔCt method. Primer sequences are listed in (Supplementary Table 1).

The test system of another series is PRDM16. Kind of series: Western blot of PRDM16 protein in sWAT of treated mice. It counts as in vivo. As to conditions: DIO and db/db mice. The source says:
To obtain tissue lysates, eWAT and sWAT were homogenized in 10% sodium dodecyl sulfate buffer containing protease and phosphatase inhibitors. An antibody targeting PR domain containing 16 (PRDM16) (Abcam) was used for western blotting. Bands were detected with ECL enhanced chemiluminescence detection reagents (Applygen, Beijing, China) and scanned with an Alpha Imager 5500 (Alpha Innotech, San Leandro, CA, USA) imaging densitometer.

A short description of series [1]: RSG and INT131 concentrations in plasma and tissue after a single oral dose (UHPLC-MS/MS). As to conditions: for Tmax: C57BL/6, mouse, po, 30 mg/kg, read-out: time of peak concentration; for average residency time: blood concentration-time profile, pre-test, single oral gavage RSG 10 mg kg−1 or INT131 30 mg kg−1. The series is classed as in vivo, DIO mice.
A further series relates to C2C12 cells. Briefly: Conversion of myogenic C2C12 cells to adipocytes (gene expression). It counts as cell-based. As to conditions: 10 μM for 5 d after confluence, in the same manner as RSG.
The test system of series [2] is mouse 3T3-L1 preadipocytes. Kind of series: Differentiation of mouse 3T3-L1 preadipocytes. The series is classed as cell-based. As to conditions: we and others (Motani et al., 2009).
Series [3] relates to diabetic Zucker (fa/fa) fatty rats. Also noted: method as in prior studies in rodents. As to conditions: 3 mg kg−1 day−1 INT131 vs 1 mg kg−1 RSG, ref prior studies in rodents; cited from earlier work.
Setting [4] is: all assayed tissues, DIO mice, RSG 10 mg kg−1 oral.

Where two headings read alike, the source gives them in different places.

For `O=S(=O)(Nc1cc(Cl)c(Oc2cnc3ccccc3c2)c(Cl)c1)c1ccc(Cl)cc1Cl` [INT131, 2,4-dichloro-N-[3,5-dichloro-4-(quinolin-3-yloxy)phenyl] benzene sulfonamide], the “body weight gain compared with RSG” value with db/db mice (10 and 30 mg kg−1 INT131 vs 10 mg kg−1 RSG) is on record as “equal body weight gains”. The “fasting blood glucose (FBG)” value with db/db mice (INT131 10 or 30 mg kg−1 by gavage once daily, within 1 week of treatment) was “lowered fasting blood glucose (FBG) in a dose-dependent manner”. Also, in the series on DIO mice (30 mg kg−1 INT131), the hepatic weight result is “did not induce an increase”. In addition, the “brown adipocyte hypertrophy (adipocyte size and area in BAT)” value with DIO mice (BAT, HE staining) is reported as “more severe brown adipocyte hypertrophy”. In the series with DIO mice, the “body weight and WAT” value is “no impact”; the serum adiponectin result is on record as “equal elevation”; the “serum pro-inflammatory cytokines MCP-1 and IL-6” value was “decreased levels”; the “morphology of hepatocyte and hepatic lipid content” value was “no impact”. For the same compound, the “sizes of expanded adipocytes in the sWAT” value in the series with DIO mice (HE staining) is on record as “markedly decreased”. Moreover, the “expression of BAT marker genes (Ucp1, Cidea, Elove3, Cox7a, Cox8b) and adipogenesis and lipogenesis genes (aP2, adiponectin, Lpl, Cd36) in BAT” value with PPARγ target genes (DIO mice) is “substantially up-regulation”. Moreover, in the series with PPARγ target genes (liver, DIO mice), the “Cd36 expression in the liver” value is listed as “only slightly induced an increase”; the “expression of aP2, adiponectin and cidec in the liver” value was “did not induce”; the “induction of adipsin and cidea in the liver compared with RSG” value is given as “to a lesser degree”. Further, in the series on PPARγ target genes, the “expression of adipogenesis and fatty acid metabolism genes in sWAT and eWAT” value is “similarly up-regulated”; the “levels of macrophage markers Cd68 and F4/80, pro-inflammatory cytokines IL-6 and TNFα and chemokine Mcp1” value was “comparably reduced”; the “Ucp1, Elove3 and aP2 gene expression in skeletal muscle” value is recorded as “enhanced”. In addition, the “PRDM16 protein levels in sWAT” value in the series on PRDM16 is “markedly increased”. For the same compound, the Tmax in series [1] (plasma and liver) was 0.5 h. The Tmax in series [1] (skeletal muscle, eWAT, sWAT, BAT) came out at 4 h. This compound also showed an average residency time in series [1] of 4.4 ± 1.17 h. Also, in the series with C2C12 cells, the “switch of myogenic cells to adipocytes (adipogenesis and myogenesis gene expression)” value was “able to switch myogenic cells to adipocytes”. For the same compound, the “promoting the differentiation of preadipocytes, compared with RSG” value in series [2] is on record as “weaker effects”. Besides, the “blood glucose lowering effects compared with RSG” value in series [3] was “identical”.
Take `CN(CCOc1ccc(CC2SC(=O)NC2=O)cc1)c1ccccn1` (stereo not shown) [RSG, 5-[[4-[2-[methyl(pyridin-2-yl)amino]ethoxy]phenyl]methyl]-1,3-thiazolidine-2,4-dione]: in the series on DIO mice, the “body weight and WAT” value is “no impact”; the serum adiponectin entry is reported as “equal elevation”; the “serum pro-inflammatory cytokines MCP-1 and IL-6” value is on record as “decreased levels”; the “morphology of hepatocyte and hepatic lipid content” value was “dramatically aggravated hepatic hypertrophy and increased lipid accumulation”. The “sizes of expanded adipocytes in the sWAT” value in the series with DIO mice (HE staining) was “markedly decreased”. The “expression of BAT marker genes (Ucp1, Cidea, Elove3, Cox7a, Cox8b) and adipogenesis and lipogenesis genes (aP2, adiponectin, Lpl, Cd36) in BAT” value in the series with PPARγ target genes (DIO mice) is listed as “substantially up-regulation”. Further, in the series with PPARγ target genes (liver, DIO mice), the “expression of adipocyte-specific genes aP2, adipsin, adiponectin, cidea and cidec in the liver” value is “robustly up-regulated”; the “expression of genes of lipogenesis (Acc) and fatty acid uptake (Cd36) in the liver” value is “dramatically stimulated”; the “expression of the key gluconeogenesis gene (Pepck) in the liver” value is on record as “inhibited”. For the same compound, in the series on PPARγ target genes (liver, DIO mice, RSG rather than INT131), the “expression of fatty acid oxidation genes Cpt1b and Pdk4 in the liver” value was “marked up-regulation”. Also, in the series on PPARγ target genes, the “expression of adipogenesis and fatty acid metabolism genes in sWAT and eWAT” value is reported as “similarly up-regulated”; the “levels of macrophage markers Cd68 and F4/80, pro-inflammatory cytokines IL-6 and TNFα and chemokine Mcp1” value is listed as “comparably reduced”; the “Ucp1, Elove3 and aP2 gene expression in skeletal muscle” value is “enhanced”. The “PRDM16 protein levels in sWAT” value in the series with PRDM16 is listed as “markedly increased”. In series [1] (setting [4]), the “time of peak concentration (Cmax)” value was found to be 0.5 h and the “tissue concentration by 12 h” value is “almost negligible”. In series [1], this compound registered an average residency time of 4.03 ± 0.83 h.
